The target in one test is NAMPT (Homo sapiens, UniProt P43490). The test is described as follows: TR-FRET Binding Assay of NAMPT with PRPP. Particulars: with 200 μM PRPP and 2.5 mM ATP; 2 nM NAMPT, 2 nM probe, 16 hours equilibration. In a few lines: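 NAMPT 2 nM + probe 2 nM + Tb-anti-His Ab 1 nM; PRPP 200 μM, ATP 2.5 mM, DMSO 2%; 16 h equilibration before TR-FRET read.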
Background: In TR-FRET formats the signal depends on donor and acceptor labels being close together.

In a further test the test system is PC3 cells. The test can be described thus: NAMPT Cell Proliferation Assay. It counts as cell-based. The conditions noted are these: Homo sapiens, PC-3, 120 h, 5 days incubation, cell viability by Cell Titer Glo. Summed up: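 IC50 values derive from sigmoidal dose-response fits of percent inhibition of PC3 viability, measured by luminescence after 5 days of compound treatment. Cells (500/well, RPMI containing 10% heat-inactivated FBS) are allowed to attach overnight, and compounds are tested at 10-fold dilutions between 10 μM and 1×10^−5 μM.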

The target of test [1] is NAMPT (human, recombinant, C-terminally His-tagged) (Homo sapiens, UniProt P43490). The test can be described thus: Time-Resolved Fluorescence Resonance Energy Transfer (TR-FRET) Binding Assay of NAMPT. The conditions noted are these: without substrates; 6.8 nM NAMPT, 200 nM probe, 3 hours equilibration. In a few lines: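 Read-out is the time-resolved FRET ratio Em520/Em495 (excitation 337 nm) between a terbium anti-His antibody (1 nM) on the enzyme and an Oregon Green 488-labelled nicotinamide-competitive inhibitor probe (200 nM). Enzyme was 6.8 nM, DMSO 2%, pH 7.5 HEPES buffer; 3 h room-temperature equilibration preceded reading.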

We go through 25 molecules from patent US9187472B2 (AbbVie Inc., priority 2012, dated 2015).

The IC50 is the concentration that inhibits the measured activity by half.

Sequence of NAMPT (P43490 whole entry): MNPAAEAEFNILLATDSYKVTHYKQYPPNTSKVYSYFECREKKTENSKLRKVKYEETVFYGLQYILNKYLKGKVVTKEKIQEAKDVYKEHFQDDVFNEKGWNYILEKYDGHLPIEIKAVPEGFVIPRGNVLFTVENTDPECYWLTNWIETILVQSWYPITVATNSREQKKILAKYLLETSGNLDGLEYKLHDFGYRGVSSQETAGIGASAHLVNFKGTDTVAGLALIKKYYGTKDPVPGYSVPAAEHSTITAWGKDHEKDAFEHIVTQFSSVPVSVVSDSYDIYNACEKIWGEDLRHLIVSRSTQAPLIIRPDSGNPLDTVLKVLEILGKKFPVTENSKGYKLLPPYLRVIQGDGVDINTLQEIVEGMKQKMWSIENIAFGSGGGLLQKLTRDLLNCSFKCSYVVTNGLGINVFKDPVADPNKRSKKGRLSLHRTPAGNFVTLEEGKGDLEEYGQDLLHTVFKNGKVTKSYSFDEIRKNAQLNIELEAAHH
Sequence of NAMPT (human, recombinant, C-terminally His-tagged) (P43490 whole entry): as above

Consider `CC(C)OCC(=O)N1CCC(Oc2ccc(NC(=O)NCc3ccn4ccnc4c3)cc2)CC1` [Example 446, 1-(imidazo[1,2-a]pyridin-7-ylmethyl)-3-[4-({1-[(propan-2-yloxy)acetyl]piperidin-4-yl}oxy)phenyl]urea], for which the figures for the concentration for half-maximal inhibition (IC50) (at NAMPT; in the test with PC3 cells; in test [1]) were 0.253 nM, 61.2 nM and 388 nM, respectively.

Consider `CC(C)(C)OC(=O)N1CCC(O)(c2ccc(C(=O)NCc3ccn4ccnc4c3)s2)CC1` [Example 403, tert-butyl 4-hydroxy-4-{5-[(imidazo[1,2-a]pyridin-7-ylmethyl)carbamoyl]thiophen-2-yl}piperidine-1-carboxylate], for which the IC50 at NAMPT amounted to 0.847 nM; in the test on PC3 cells it was 54.5 nM; in test [1], 1550 nM.

With `O=C(NCc1ccn2ccnc2c1)c1ccc(C2CCN(C(=O)C3CCOCC3)C2)cc1` (stereo not drawn) [Example 376, N-(imidazo[1,2-a]pyridin-7-ylmethyl)-4-[1-(tetrahydro-2H-pyran-4-ylcarbonyl)pyrrolidin-3-yl]benzamide], the IC50 at NAMPT was 0.305 nM; with PC3 cells, more than 10000 nM; in test [1], 1050 nM.

For the molecule `CC(C)C(=O)N1CC(c2ccc(NC(=O)NCc3ccn4ccnc4c3)cc2)C1` [Example 452, 1-(imidazo[1,2-a]pyridin-7-ylmethyl)-3-{4-[1-(2-methylpropanoyl)azetidin-3-yl]phenyl}urea], the figures for the IC50 (on NAMPT; in the test on PC3 cells; in test [1]) were 0.285 nM, 59.2 nM and 293 nM, respectively.

`C[C@@H](O)Cn1cc(-c2ccc(C(=O)NCc3ccn4ccnc4c3)s2)cn1` [Example 304, 5-{1-[(2R)-2-hydroxypropyl]-1H-pyrazol-4-yl}-N-(imidazo[1,2-a]pyridin-7-ylmethyl)thiophene-2-carboxamide]: the results for the half-maximal inhibitory concentration (IC50) (on NAMPT; in the test on PC3 cells; in test [1]) were 0.169 nM, 18.8 nM and 66.2 nM, respectively.

Consider `Cn1cc(-c2ccc(C(=O)NCc3ccn4ccnc4c3)s2)cn1` [Example 345, N-(imidazo[1,2-a]pyridin-7-ylmethyl)-5-(1-methyl-1H-pyrazol-4-yl)thiophene-2-carboxamide], for which the IC50 was 0.27 nM on NAMPT, 281 nM with PC3 cells and 201 nM in test [1].

As for `O=C(NCc1ccc2nccn2c1)c1cnc(N(CC2CCCO2)C(=O)CCc2nccs2)s1` (stereo not drawn) [Example 136, N-(imidazo[1,2-a]pyridin-6-ylmethyl)-2-{(tetrahydrofuran-2-ylmethyl)[3-(1,3-thiazol-2-yl)propanoyl]amino}-1,3-thiazole-5-carboxamide], the IC50 at NAMPT stood at 0.512 nM; with PC3 cells it was 3.05 nM; in test [1], 72.7 nM.

Take `O=C(NCc1ccn2ccnc2c1)c1ccc(C2CN(C(=O)c3ccncn3)C2)cc1` [Example 663, N-(imidazo[1,2-a]pyridin-7-ylmethyl)-4-[1-(pyrimidin-4-ylcarbonyl)azetidin-3-yl]benzamide]: the half-inhibitory concentration (IC50) on NAMPT was determined as 1.07 nM; in the test on PC3 cells, 90 nM; in test [1], 653 nM.

In the case of `O=C(Nc1ccc(NC(=O)C2COCCO2)cc1)Nc1ccc2nccn2c1` (stereo not drawn) [Example 50], the IC50 at NAMPT amounted to 0.817 nM; in the test with PC3 cells it was 6140 nM; in test [1] it was 1640 nM.

As to `CC(C)CC(=O)N1CC(c2ccc(C(=O)NCc3ccn4ccnc4c3)cc2)C1` [Example 651, N-(imidazo[1,2-a]pyridin-7-ylmethyl)-4-[1-(3-methylbutanoyl)azetidin-3-yl]benzamide], the IC50 at NAMPT came out at 0.715 nM; with PC3 cells, 64.8 nM; in test [1], 276 nM.

Turning to `CC(C)Cn1cc(-c2sc(C(=O)NCc3ccn4ccnc4c3)cc2Cl)cn1` [Example 578, 4-chloro-N-(imidazo[1,2-a]pyridin-7-ylmethyl)-5-[1-(2-methylpropyl)-1H-pyrazol-4-yl]thiophene-2-carboxamide], the IC50 came out at 0.775 nM at NAMPT, 4600 nM in the test on PC3 cells and 682 nM in test [1].

For `CC(C)(C)CC(=O)N1CC=C(c2ccc(C(=O)NCc3ccn4ccnc4c3)o2)CC1` [Example 749, 5-[1-(3,3-dimethylbutanoyl)-1,2,3,6-tetrahydropyridin-4-yl]-N-(imidazo[1,2-a]pyridin-7-ylmethyl)furan-2-carboxamide], the figures for the IC50 (at NAMPT; in the test on PC3 cells; in test [1]) were 0.79 nM, 77 nM and 392 nM, respectively.

In the case of `CC(C)(C)CC(=O)N1CC(c2ccc(C(=O)NCc3ccn4ccnc4c3)cc2)C1` [Example 652, 4-[1-(3,3-dimethylbutanoyl)azetidin-3-yl]-N-(imidazo[1,2-a]pyridin-7-ylmethyl)benzamide], the IC50 came to 1.16 nM at NAMPT, 34.6 nM with PC3 cells and 535 nM in test [1].

With `O=C(NCc1ccn2ccnc2c1)c1ccc(C2(O)CN(C(=O)c3ccccc3)C2)s1` [Example 401, 5-(1-benzoyl-3-hydroxyazetidin-3-yl)-N-(imidazo[1,2-a]pyridin-7-ylmethyl)thiophene-2-carboxamide], the IC50 at NAMPT was determined as 0.292 nM; with PC3 cells, 55.9 nM; in test [1] it was 12.6 nM.

As for `CC(C)(O)C(=O)N1CCC(c2ccc(NC(=O)NCc3ccn4ccnc4c3)cc2)C1` (stereo not drawn) [Example 385, 1-{4-[1-(2-hydroxy-2-methylpropanoyl)pyrrolidin-3-yl]phenyl}-3-(imidazo[1,2-a]pyridin-7-ylmethyl)urea], the half-inhibitory concentration (IC50) stood at 0.539 nM on NAMPT, 110 nM with PC3 cells and 491 nM in test [1].

In the case of `CC[C@H](C)C(=O)N1CCC(c2ccc(C(=O)NCc3ccn4ccnc4c3)cc2)C1` (stereo partly drawn) [Example 368, N-(imidazo[1,2-a]pyridin-7-ylmethyl)-4-{1-[(2S)-2-methylbutanoyl]pyrrolidin-3-yl}benzamide], the results for the IC50 (at NAMPT; with PC3 cells; in test [1]) were 0.317 nM, 48.4 nM and 602 nM, respectively.

On to `CC(C)(O)C(=O)N1CCC(Oc2ccc(C(=O)NCc3ccc4nccn4c3)cc2)CC1` [Example 166, 4-{[1-(2-hydroxy-2-methylpropanoyl)piperidin-4-yl]oxy}-N-(imidazo[1,2-a]pyridin-6-ylmethyl)benzamide], for which the IC50 on NAMPT came out at 1.81 nM; in the test with PC3 cells, 97.1 nM; in test [1] it was 1430 nM.

Consider `O=C(NCc1ccn2ccnc2c1)c1ccc(C2CCN(C(=O)c3ccc(Cl)cc3)CC2)cc1` [Example 529, 4-[1-(4-chlorobenzoyl)piperidin-4-yl]-N-(imidazo[1,2-a]pyridin-7-ylmethyl)benzamide], for which the IC50 is 0.283 nM at NAMPT, 227 nM in the test with PC3 cells and 248 nM in test [1].

As to `O=C(NCc1ccn2ccnc2c1)c1ccc(C2CCN(C(=O)c3cc(F)ccc3F)CC2)cc1` [Example 522, 4-[1-(2,5-difluorobenzoyl)piperidin-4-yl]-N-(imidazo[1,2-a]pyridin-7-ylmethyl)benzamide], the IC50 on NAMPT stood at 0.199 nM; in the test on PC3 cells, 6.73 nM; in test [1], 58.1 nM.

For the molecule `CC(C)(C)C(=O)N1CCC(c2ccc(C(=O)NCc3ccn4ccnc4c3)s2)C1` (stereo not drawn) [Example 787, 5-[1-(2,2-dimethylpropanoyl)pyrrolidin-3-yl]-N-(imidazo[1,2-a]pyridin-7-ylmethyl)thiophene-2-carboxamide], the figures for the IC50 (on NAMPT; with PC3 cells; in test [1]) were 0.474 nM, 6.75 nM and 55 nM, respectively.

`Cc1ccsc1C(=O)N1CCC(c2ccc(C(=O)NCc3ccn4ccnc4c3)cc2)CC1` [Example 524, N-(imidazo[1,2-a]pyridin-7-ylmethyl)-4-{1-[(3-methylthiophen-2-yl)carbonyl]piperidin-4-yl}benzamide]: the results for the IC50 (at NAMPT; in the test on PC3 cells; in test [1]) were 0.169 nM, 2.46 nM and 24.7 nM, respectively.

Turning to `O=C(Nc1ccc(C(=O)Nc2ccccc2)cc1)Nc1ccc2nccn2c1` [Example 19, 4-[(imidazo[1,2-a]pyridin-6-ylcarbamoyl)amino]-N-phenylbenzamide], the values for the IC50 (on NAMPT; with PC3 cells; in test [1]) were 0.921 nM, 6630 nM and 2680 nM, respectively.

Take `O=C(NCc1ccc2ncnn2c1)c1ccc(-c2cnn(CC3COCCO3)c2)s1` (stereo not drawn) [Example 676, 5-[1-(1,4-dioxan-2-ylmethyl)-1H-pyrazol-4-yl]-N-([1,2,4]triazolo[1,5-a]pyridin-6-ylmethyl)thiophene-2-carboxamide]: the IC50 worked out at 6.98 nM at NAMPT, 78.7 nM in the test on PC3 cells and 126 nM in test [1].

On to `CCC(=O)N1CCC(c2ccc(C(=O)NCc3ccn4ccnc4c3)s2)C1` (stereo not drawn) [Example 780, N-(imidazo[1,2-a]pyridin-7-ylmethyl)-5-(1-propanoylpyrrolidin-3-yl)thiophene-2-carboxamide], for which the concentration for half-maximal inhibition (IC50) at NAMPT came out at 0.382 nM; in the test with PC3 cells it was 81.7 nM; in test [1], 250 nM.

Turning to `CC[C@H](C)C(=O)N1CC[C@H](Oc2ccc(NC(=O)NCc3ccn4ccnc4c3)cc2)C1` [Example 328, 1-(imidazo[1,2-a]pyridin-7-ylmethyl)-3-[4-({(3S)-1-[(2S)-2-methylbutanoyl]pyrrolidin-3-yl]oxy)phenyl}urea], the values for the IC50 (at NAMPT; with PC3 cells; in test [1]) were 0.169 nM, 8.9 nM and 68 nM, respectively.
